Patent US20210137935A1, “CORTICOTROPIN RELEASING FACTOR RECEPTOR ANTAGONISTS” (Spruce Biosciences, Inc., priority 2017, published 2021)
Like-named read-outs stand apart in the source and are kept apart here.

Assays:
Type in all cases: in vivo, human
[1] = Phase 2 study in adults with classic CAH: safety; details: patients with CAH, 5-fold range of doses
Excerpt: (§1) Cohort A of the Phase 2 Study includes a 6-week, multiple-dose, dose escalation study of Compound 1 for the treatment of adults with classic CAH. After screening, eligible patients will be enrolled into a 6-week treatment period followed by a 4-week washout/safety follow-up period.
This cohort will be conducted in approximately 9 patients, who will receive Compound 1 daily for up to 6 weeks. Compound 1 will be administered as an oral daily dose. Patients will undergo titration of Compound 1 through three escalating dosage strengths at 2-week intervals. Patients will have overnight PK/PD assessments performed at baseline, which include an pre-dose overnight assessment and a post-dose overnight assessment for PK/PD following administration of the first dose. At the end of each 2-week dosing period, patients will return for single overnight visits for steady-state PK/PD assessments. A follow-up outpatient visit will occur 30 days after their last dose. Upon completion of the initial cohort (Cohort A), the study will proceed to a multiple ascending dose (MAD) design with up to 3 sequential cohorts (Cohorts B, C, and D) to further evaluate the safety, PK, and PD of various SPR001 dosing regimens and to identify an optimal dose regimen. […]
• 1. […] To assess the efficacy of Compound 1 in subjects with classic CAH as measured by percent and absolute change in 17-OHP compared to baseline. […]

[2] = system: 17-OHP; assay: Phase 2 study in adults with classic CAH: 17-OHP; details: patients with classic CAH
Excerpt: as §1
This cohort will be conducted in approximately 9 patients, who will receive Compound 1 daily for up to 6 weeks. Compound 1 will be administered as an oral daily dose. Patients will undergo titration of Compound 1 through three escalating dosage strengths at 2-week intervals. Patients will have overnight PK/PD assessments performed at baseline, which include an pre-dose overnight assessment and a post-dose overnight assessment for PK/PD following administration of the first dose. At the end of each 2-week dosing period, patients will return for single overnight visits for steady-state PK/PD assessments. A follow-up outpatient visit will occur 30 days after their last dose. Upon completion of the initial cohort (Cohort A), the study will proceed to a multiple ascending dose (MAD) design with up to 3 sequential cohorts (Cohorts B, C, and D) to further evaluate the safety, PK, and PD of various SPR001 dosing regimens and to identify an optimal dose regimen. Each cohort will undergo a 2-week run-in period, a 2-week treatment period, and a 30-day washout and safety follow-up period. During the run-in period, which will occur during screening, subjects will document in a paper diary each dose of glucocorticoid medication taken, the time of each meal, and the time they went to bed and woke up each day, to ensure compliance with background glucocorticoid regimens and the stability of their daily routine.
• 1. To evaluate the safety of Compound 1 in subjects with CAH. • 2. To assess the efficacy of Compound 1 in subjects with classic CAH as measured by percent and absolute change in 17-OHP compared to baseline.
This allows for steroid taper. […] 50% of subjects were within the guideline range (1200 ng/dL) after treatment.

[3] = Study 1: single-escalating oral dose pharmacokinetics in healthy adult subjects; details: for Cmax / AUC0-tlast / AUC0-∞ / CL/F / t1/2: geometric mean
Procedure: Study 1 was the first-in-human study that investigated the safety, tolerability, and PK of single-escalating doses of Compound 1, given orally, to healthy adult subjects. […] The data from this study were used for the selection of doses for Study 2.
In Study 1, Compound 1 was administered to healthy adult subjects as a single PO dose of 2, 10, 50, 150, 400, or 800 mg in the fed state and 150 mg in the fasted state. Absorption occurred moderately late, achieving peak Cmax between 4 to 6 hours following dosing in the fed state.
When Compound 1 was given in the fed state, median time to reach maximum plasma concentration (Tmax) occurred between 4 and 6 hours.
As part of this single-dose escalation study, a food effect PK investigation was performed to examine Compound 1 exposures in both the fed and fasted states at the 150-mg dose level. A total of 6 subjects were administered 150 mg Compound 1 in each of these 2 dosing groups. Of these 6 subjects, 4 subjects received Compound 1 at the same dose in both fed and fasted states. […] Table 6 provides a summary of the PK parameters at the 150-mg dose level under both fed and fasted state conditions.
PK parameters AUC0-∞ and Cmax were analyzed separately for dose proportionality for Compound 1 from 50 to 800 mg when administered in the fed state. […] Dose proportionality across administered doses in the fed state could not be concluded on the basis of AUC0-∞ or Cmax.

[4] = single oral dose 150 mg, fasted

## CCC(CC)c1cc(C)nc2c(-c3sc(N4CCOCC4)nc3Cl)c(C)nn12 [Compound 1, 3-(4-Chloro-2-(morpholin-4-yl)thiazol-5-yl)-7-(1-ethylpropyl)-2,5-dimethylpyrazolo(1,5-a)pyrimidine]
[1]
  tolerability: generally well-tolerated
[2]
  subjects with more than 25% reduction in 17-OHP: 50%
  subjects with reduction in 17-OHP: 80%
  subjects within the guideline range (1200 ng/dL) of 17-OHP after treatment: 50%
[3]; 50 to 800 mg, fed state
  increase of AUC0-∞ for every doubling of dose, relative to dose proportionality: 1.74 times
[3]; 150-mg dose, fed vs fasted
  mean AUC0-∞, fed state relative to fasted state: approximately 3 fold
  mean Cmax, fed state relative to fasted state: ~11 fold
[3]; human, plasma, single PO dose, fed and fasted state, overall range, read-out: half-life (t1/2), range
  half-life: 11 to 101 h
[3]; human, plasma, single oral dose 150 mg, fasted state, range, read-out: Tmax, range
  Tmax: 6 to 12 h
[3]; single oral dose 2 mg, fed, median
  Tmax: 6.00 h
[3]; single oral dose 2 mg, fed, plasma
  Cmax: 0.867 ng/mL
[3]; single oral dose 10 mg, fed, median
  Tmax: 4.00 h
[3]; single oral dose 10 mg, fed, plasma
  Cmax: 3.01 ng/mL
[3]; single oral dose 50 mg, fed
  AUC0-tlast: 152 ng·h/mL
  AUC0-∞: 165 ng·h/mL
  CL/F: 302 L/h
  t1/2: 31 h
[3]; single oral dose 50 mg, fed, median
  Tmax: 4.00 h
[3]; single oral dose 50 mg, fed, plasma
  Cmax: 19.5 ng/mL
[3]; [4]
  AUC0-tlast: 288 ng·h/mL
  AUC0-∞: 331 ng·h/mL
  CL/F: 454 L/h
  t1/2: 38.4 h
[3]; single oral dose 150 mg, fasted, median
  Tmax: 10.05 h
[3]; single oral dose 150 mg, fasted, plasma
  Cmax: 8.22 ng/mL
[3]; single oral dose 150 mg, fed
  AUC0-tlast: 891 ng·h/mL
  AUC0-∞: 956 ng·h/mL
  CL/F: 157 L/h
  t1/2: 29.2 h
[3]; single oral dose 150 mg, fed, median
  Tmax: 4.00 h
[3]; single oral dose 150 mg, fed, plasma
  Cmax: 93.4 ng/mL
[3]; single oral dose 400 mg, fed
  AUC0-tlast: 2300 ng·h/mL
  AUC0-∞: 2580 ng·h/mL
  CL/F: 155 L/h
  t1/2: 44.2 h
[3]; single oral dose 400 mg, fed, median
  Tmax: 4.00 h
[3]; single oral dose 400 mg, fed, plasma
  Cmax: 207 ng/mL
[3]; single oral dose 800 mg, fed
  AUC0-tlast: 4390 ng·h/mL
  AUC0-∞: 4850 ng·h/mL
  CL/F: 165 L/h
  t1/2: 41.9 h
[3]; single oral dose 800 mg, fed, median
  Tmax: 6.00 h
[3]; single oral dose 800 mg, fed, plasma
  Cmax: 382 ng/mL
